Read-outs that look alike come from different tables or passages of the source.
Target: T1, chimeric human H3 receptor (Homo sapiens, UniProt Q9Y5N1, E19D)
T1 construct: made in house; host or cells: Sf9 insect cells (baculovirus infection); P2 membrane preparation
Assay: Chimeric human H3 receptor GTP binding assay (agonist-stimulated GTP-gamma35S binding, Example 7)
Assay type: biochemical
Conditions: read-out: Ki
How it was run: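 Sf9 membranes co-expressing the chimeric receptor and heterotrimeric G-protein subunits, 35 μg protein per tube, in pH 7.4 Tris buffer with 10 μM GDP. Test compounds at 10^−10 to 10^−6 M with 1 μM histamine, 60 min at room temperature. Filter-bound GTP-gamma^35S read by scintillation; IC50 from non-linear regression of dose-response curves.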

[1] = Table II "Ki", symbol "*": Ki in the assay of Example 7
[2] = Table II, "*" in Ki, assay of Example 7
[3] = assay of Example 7, symbol * in column headed Ki of Table II
[4] = Table II, assay of Example 7, "*" in Ki
[5] = assay of Example 7, "*" in Ki of Table II

T1 sequence (Q9Y5N1 with tags, fused parts or gaps E19D): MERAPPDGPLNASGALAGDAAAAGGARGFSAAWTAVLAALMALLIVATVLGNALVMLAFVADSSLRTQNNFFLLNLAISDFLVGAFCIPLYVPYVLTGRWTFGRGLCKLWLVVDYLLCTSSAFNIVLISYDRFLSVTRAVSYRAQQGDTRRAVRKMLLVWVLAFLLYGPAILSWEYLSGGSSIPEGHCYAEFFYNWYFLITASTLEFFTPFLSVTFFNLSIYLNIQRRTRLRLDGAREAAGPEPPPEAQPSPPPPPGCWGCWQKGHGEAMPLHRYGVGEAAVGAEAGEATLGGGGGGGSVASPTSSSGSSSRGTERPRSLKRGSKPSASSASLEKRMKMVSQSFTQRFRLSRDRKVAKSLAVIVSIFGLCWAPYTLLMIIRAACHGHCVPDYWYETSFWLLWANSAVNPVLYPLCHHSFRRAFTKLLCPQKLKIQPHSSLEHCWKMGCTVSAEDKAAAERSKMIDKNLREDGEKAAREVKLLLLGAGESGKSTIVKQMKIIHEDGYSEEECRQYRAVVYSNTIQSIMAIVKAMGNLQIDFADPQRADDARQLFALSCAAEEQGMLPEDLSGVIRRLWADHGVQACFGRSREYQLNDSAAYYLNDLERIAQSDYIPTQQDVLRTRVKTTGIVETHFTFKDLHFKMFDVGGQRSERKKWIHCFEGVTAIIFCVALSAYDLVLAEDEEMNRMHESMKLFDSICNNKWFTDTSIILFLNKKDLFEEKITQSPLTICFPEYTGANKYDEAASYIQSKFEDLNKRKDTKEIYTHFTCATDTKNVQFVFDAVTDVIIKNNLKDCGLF

With CC(C)c1ccc(-c2cnc(N3CCN(CC(=O)N4CCN(C5CCC5)CC4)CC3)cn2)cc1 [Compound 927, 2-{4-[2-(4-cyclobutylpiperazin-1-yl)-2-oxoethyl]piperazin-1-yl}-5-(4-isopropylphenyl)pyrazine] the Ki [1] was < 1000 nM.

For O=C(CN1CCN(c2cnc(-c3ccc(Oc4ccccc4)cc3)cn2)CC1)N1CCN(C2CCC2)CC1 [Compound 936, 2-{4-[2-(4-cyclobutylpiperazin-1-yl)-2-oxoethyl]piperazin-1-yl}-5-(4-phenoxyphenyl)pyrazine], the Ki [1] was < 1000 nM.

In the case of O=C(CN1CCN(c2ccc(C(=O)N3CCCC3)cc2)CC1)N1CCN(C2CCC2)CC1 [Compound 603, 1-cyclobutyl-4-({4-[4-(pyrrolidin-1-ylcarbonyl)phenyl]piperazin-1-yl}acetyl)piperazine], the Ki [2] is reported as < 1000 nM.

With CCC(=O)c1ccc(N2CCN(CC(=O)N3CCN(C4CCCC4)CC3)CC2)cc1 [Compound 324, 1-(4-{4-[2-(4-cyclopentylpiperazin-1-yl)-2-oxoethyl]piperazin-1-yl}phenyl)propan-1-one] the Ki [3] was < 1000 nM.

O=C(CN1CCN(c2ccc(C(=O)N3CCSCC3)cc2)CC1)N1CCN(C2CCC2)CC1 [Compound 1094, 4-(4-{4-[2-(4-cyclobutylpiperazin-1-yl)-2-oxoethyl]piperazin-1-yl}benzoyl) thiomorpholine] was tested, and the Ki [4] was < 1000 nM.

O=C(CN1CCN(c2ccc(C(=O)N3CCCCC3)cc2)CC1)N1CCN(C2CCC2)CC1 [Compound 601, 1-cyclobutyl-4-({40[4-(piperidin-1-ylcarbonyl)phenyl]piperazin-1-yl}acetyl)piperazine] was tested, and the Ki [2] was < 1000 nM.

For Cc1cc(-c2ccc(N3CCN(CC(=O)N4CCN(C5CCC5)CC4)CC3)cc2)ccc1F [Compound 771, 1-cyclobutyl-4-{[4-(4′-fluoro-3′-methylbiphenyl-4-yl)piperazin-1-yl]acetyl}piperazine], the Ki [2] was < 1000 nM.

O=C(CN1CCN(c2ccc(-c3cccc(Cl)c3Cl)nn2)CC1)N1CCN(C2CCC2)CC1 [Compound 1054, 3-{4-[2-(4-cyclobutylpiperazin-1-yl)-2-oxoethyl]piperazin-1-yl}-6-(2,3-dichlorophenyl)pyridazine] was tested, and the Ki [4] was < 1000 nM.

In the case of CCOC(=O)c1ccc(N2CCN(CC(=O)N3CCN(C4CCC4)CC3)CC2)cc1 [Compound 1201, ethyl 4-{4-[2-(4-cyclobutylpiperazin-1-yl)-2-oxoethyl]piperazin-1-yl}benzoate], the Ki [5] is reported as < 1000 nM.

For CC(C)(C)CNC(=O)c1ccc(N2CCN(CC(=O)N3CCN(C4CCC4)CC3)CC2)cc1 [Compound 1145, 4-{4-[2-(4-cyclobutylpiperazin-1-yl)-2-oxoethyl]piperazin-1-yl}-N-(2,2-dimethylpropyl) benzamide], the Ki [5] was < 1000 nM.

With CCC(C)N1CCN(C(=O)CN2CCN(c3cc(Cl)ccc3OC)CC2)CC1 (stereo not shown) [Compound 884, 1-sec-butyl-4-{[4-(5-chloro-2-methoxyphenyl)piperazin-1-yl]acetyl}piperazine] the Ki [1] was < 1000 nM.

O=C(CN1CCN(c2ccc(-c3cccc4c3oc3ccccc34)nn2)CC1)N1CCN(C2CCC2)CC1 [Compound 1044, 3-{4-[2-(4-cyclobutylpiperazin-1-yl)-2-oxoethyl]piperazin-1-yl}-6-dibenzo[b,d]furan-4-ylpyridazine] was tested, and the Ki [4] was < 1000 nM.

O=C(CN1CCN(C(=O)C2CCCO2)CC1)N1CCN(C2CCCCC2)CC1 (stereo not shown) [Compound 826, 1-cyclohexyl-4-{[4-(tetrahydrofuran-2-ylcarbonyl)piperazin-1-yl]acetyl}piperazine] was tested, and the Ki [1] was < 1000 nM.

In the case of CC(=O)c1ccc(-c2ccc(N3CCN(CC(=O)N4CCN(C5CCC5)CC4)CC3)cc2)cc1 [Compound 309, 1-(4′-{4-[2-(4-cyclobutylpiperazin-1-yl)-2-oxoethyl]piperazin-1-yl}biphenyl-4-yl)ethanone], the Ki [3] is reported as < 1000 nM.

For COc1ccc(C(C)C)cc1-c1ccc(N2CCN(CC(=O)N3CCN(C4CCC4)CC3)CC2)cc1 [Compound 793, 1-cyclobutyl-4-{[4-(5′-isopropyl-2′-methoxybiphenyl-4-yl)piperazin-1-yl]acetyl}piperazine], the Ki [1] was < 1000 nM.

In the case of O=C(CN1CCN(c2cnc(-c3ccc(F)cc3F)cn2)CC1)N1CCN(C2CCC2)CC1 [Compound 961, 2-{4-[2-(4-cyclobutylpiperazin-1-yl)-2-oxoethyl]piperazin-1-yl}-5-(2,4-difluorophenyl)pyrazine], the Ki [4] is reported as < 1000 nM.

In the case of CCOc1ccc(-c2cnc(N3CCN(CC(=O)N4CCN(C5CCC5)CC4)CC3)cn2)cc1 [Compound 946, 2-{4-[2-(4-cyclobutylpiperazin-1-yl)-2-oxoethyl]piperazin-1-yl}-5-(4-ethoxyphenyi)pyrazine], the Ki [4] is reported as < 1000 nM.

With COc1ccc(N2CCN(CC(=O)N3CCN(C4CCC4)CC3)CC2C)cc1 (stereo not shown) [Compound 1103, 4-[2-(4-cyclobutylpiperazin-1-yl)-2-oxoethyl]-1-(4-methoxyphenyl)-2-methylpiperazine] the Ki [4] was < 1000 nM.

With CCC(C)N1CCN(C(=O)CN2CCN(c3ccc(Cl)c(C)c3)CC2)CC1 (stereo not shown) [Compound 878, 1-sec-butyl-4-{[4-(4-chloro-3-methylphenyl)piperazin-1-yl]acetyl}piperazine] the Ki [1] was < 1000 nM.

For O=C(CN1CCN(c2ccc(-c3ccc(Cl)c(F)c3)nn2)CC1)N1CCN(C2CCC2)CC1 [Compound 990, 3-(4-chloro-3-fluorophenyl)-6-{4-(2-(4-cyclobutylpiperazin-1-yl)-2-oxoethyl]piperazin-1-yl}pyridazine], the Ki [4] was < 1000 nM.

COc1ccc2cc(-c3ccc(N4CCN(CC(=O)N5CCN(C6CCC6)CC5)CC4)nn3)ccc2c1 [Compound 1029, 3-{4-[2-(4-cyclobutylpiperazin-1-yl)-2-oxoethyl]piperazin-1-yl}-6-(6-methoxy-2-naphthyl)pyridazine] was tested, and the Ki [4] was < 1000 nM.

With CCNC(=O)c1ccc(N2CCN(CC(=O)N3CCN(C4CCC4)CC3)CC2)cc1 [Compound 1124, 4-{1-[2-(4-cyclobutylpiperazin-1-yl)-2-oxoethyl]piperazin-1-yl}-N-ethylbenzamide] the Ki [4] was < 1000 nM.

With CC(C)CCNC(=O)c1ccc(N2CCN(CC(=O)N3CCN(C4CCC4)CC3)CC2)nc1 [Compound 1179, 6-{4-[2-(4-cyclobutylpiperazin-1-yl)-2-oxoethyl]piperazin-1-yl}-N-(3-methylbutyl)nicotinamide] the Ki [5] was < 1000 nM.

For CCC(C)N1CCN(C(=O)CN2CCN(c3ccc(Cl)c(C(F)(F)F)c3)CC2)CC1 (stereo not shown) [Compound 855, 1-sec-butyl-4-({4-[4-chloro-3-(trifluoromethyl)phenyl]piperazin-1-yl}acetyl)piperazine], the Ki [1] was < 1000 nM.

With CNC(=O)c1ccc(N2CCN(CC(=O)N3CCN(C4CCC4)CC3)CC2)nc1 [Compound 1167, 6-{4-[2-(4-cyclobutylpiperazin-1-yl)-2-oxoethyl]piperazin-1-yl}-N-methylnicotinamide] the Ki [5] was < 1000 nM.

With O=C(NC1CCC1)c1cccc(N2CCN(CC(=O)N3CCN(C4CCC4)CC3)CC2)c1 [Compound 1266, N-cyclobutyl-3-{4-[2-(4-cyclobutylpiperazin-1-yl)-2-oxoethyl]piperazin-1-yl}benzamide] the Ki [5] was < 1000 nM.

N#Cc1ccc(N2CCN(CC(=O)N3CCN(C4CCCC4)CC3)CC2)cc1 [Compound 1148, 4-{4-[2-(4-cyclopentylpiperazin-1-yl)-2-oxoethyl]piperazin-1-yl}benzonitrile] was tested, and the Ki [5] was < 1000 nM.

For O=C(CN1CCN(c2ccc(-c3ccccc3)cc2)CC1)N1CCN(C2CCC2)CC1 [Compound 494, 1-biphenyl-4-yl-4-[2-(4-cyclobutylpiperazin-1-yl)-2-oxoethyl]piperazine], the Ki ("*" in Ki of Table II, assay of Example 7) was < 1000 nM.

Source: patent publication US7851474B2, “Dipiperazinyl ketones and related analogues” (Neurogen Corporation, priority 2005, dated 2010)
